Source: patent US11117947B2, “Double-acylated GLP-1 derivatives” (Novo Nordisk A/S, priority 2011, dated 2021)
Read-outs that look alike come from different tables or passages of the source. Numbered stars: 1 amine (or outer) side, 2 acyl side, 3 side chain; on linkers, the order of the positions; unused ones are H or OH. Square brackets hold non-standard residues; d marks the D form. Side chains are listed from the residue outwards. Peptide text beside a SMILES is read from it. * marks the point of attachment. Decanoyl(10-(4-HOOC-PhO)) = O=C(O)c1ccc(OCCCCCCCCCC(=O)*)cc1; γGlu = O=C(O)[C@H](CCC(=O)[*:2])N[*:1]; C14 diacid = O=C(O)CCCCCCCCCCCCC(=O)*; AEEA = NCCOCCOCC(=O)O; Aib = CC(C)(N)C(=O)O

What was measured:
human GLP-1 receptor = target: T1, human GLP-1 receptor (Homo sapiens, UniProt P43220); assay: GLP-1 receptor binding: displacement of 125I-GLP-1 (SPA) at low and high albumin; settings: for Ratio [(IC50/nM) high HSA]/[(IC50/nM) low HSA]: 2.0% HSA vs 0.001% HSA
T1 construct: expressed in transfected cells; membranes
T1 sequence (P43220 24-463): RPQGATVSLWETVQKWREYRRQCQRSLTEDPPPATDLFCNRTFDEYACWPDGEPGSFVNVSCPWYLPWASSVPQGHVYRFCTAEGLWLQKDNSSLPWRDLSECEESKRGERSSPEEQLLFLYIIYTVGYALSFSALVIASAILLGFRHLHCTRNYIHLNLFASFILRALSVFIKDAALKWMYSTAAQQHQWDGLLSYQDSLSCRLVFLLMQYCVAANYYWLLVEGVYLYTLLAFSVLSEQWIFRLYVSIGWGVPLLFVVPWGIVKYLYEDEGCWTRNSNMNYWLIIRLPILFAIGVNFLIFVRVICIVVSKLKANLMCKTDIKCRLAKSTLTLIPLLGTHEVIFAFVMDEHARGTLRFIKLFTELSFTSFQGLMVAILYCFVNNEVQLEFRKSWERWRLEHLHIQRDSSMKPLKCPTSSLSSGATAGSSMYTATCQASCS
Protocol: The purpose of this experiment is to investigate the binding to the GLP-1 receptor of the GLP-1 derivatives, and how the binding is potentially influenced by the presence of albumin. This is done in an in vitro experiment as described below.
In order to test the binding of the derivatives to albumin, the assay was performed with a low concentration of albumin (0.001%—corresponding to the residual amount thereof in the tracer), as well as with a high concentration of albumin (2.0% added). A shift in the binding affinity, IC50, is an indication that the peptide in question binds to albumin, and thereby a prediction of a potential protracted pharmacokinetic profile of the peptide in question in animal models.
Species (in vitro): Hamster
Biological End Point: Receptor Binding
A stable transfected cell line and a high expressing clone were selected for screening. The cells were grown at 5% CO2 in DMEM, 10% FCS, 1% Pen/Strep (Penicillin/Streptomycin) and 1.0 mg/ml of the selection marker G418.
The cells (approx. 80% confluence) were washed twice in PBS and harvested with Versene (aqueous solution of the tetrasodium salt of ethylenediaminetetraacetic acid), following which they were separated by centrifugation at 1000 rpm for 5 min. The cells/cell pellet must be kept on ice to the extent possible in the subsequent steps. The cell pellet was homogenised with Ultrathurrax for 20-30 seconds in a suitable amount of Buffer 1 (depending on the amount of cells, but e.g. 10 ml). The homogenate was centrifuged at 20000 rpm for 15 minutes. The pellet was resuspended (homogenised) in 10 ml Buffer 2 and re-centrifuged. This step was repeated once more. The resulting pellet was resuspended in Buffer 2, and the protein concentration was determined. The membranes were stored at minus 80° C.
Buffer 1: 20 mM Na-HEPES+10 mM EDTA, pH 7.4
Buffer 2: 20 mM Na-HEPES+0.1 mM EDTA, pH 7.4
Test compounds, membranes, SPA-particles and [^125I]-GLP-1(7-36)NH2 were diluted in assay buffer. 50 ul (micro liter) HSA (“high albumin” experiment containing 2% HSA), or buffer (“low albumin” experiment containing 0.001% HSA), was added to Optiplate, and 25 ul of test compounds were added. 5-10 ug membrane protein/sample was added (50 ul) corresponding to 0.1-0.2 mg protein/ml (to be preferably optimised for each membrane preparation). SPA-particles (Wheatgerm agglutinin SPA beads, Perkin Elmer, #RPNQ0001) were added in an amount of 0.5 mg/well (50 ul). The incubation was started with [^125I]-GLP-1]-(7-36)NH2 (final concentration 0.06 nM corresponding to 49.880 DPM, 25 ul). The plates were sealed with PlateSealer and incubated for 120 minutes at 30° C. while shaking. The plates were centrifuged (1500 rpm, 10 min) and counted in Topcounter.

[1] = Estimate of oral bioavailability: gut injection in rat (caprate), exposure in plasma; format: in vivo; settings: injection in jejunum, 1000 uM in 55 mg/ml sodium caprate, plasma concentration (pM) at 30 min divided by dosing solution concentration (μM), mean n=4
Outline: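 Male Sprague Dawley rats (~240 g, n=4) received 100 μl of 1000 uM derivative in 55 mg/ml sodium caprate by catheter into proximal or mid jejunum. Tail-vein EDTA plasma was sampled up to 240 min. Peptide was quantified by two-antibody bead chemiluminescence immunoassay, giving mean concentration-time profiles (pmol/l).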

[2] = low albumin, 0.001% HSA, read-out: IC50/nM (low HSA)

Row | IC50 (human GLP-1 receptor; [2]) [nM] | Dose-corrected exposure at 30 min [1] | Ratio [(IC50/nM) high HSA]/[(IC50/nM) low HSA] (human GLP-1 receptor) | IC50 (human GLP-1 receptor; high albumin, 2.0% HSA, read-out: IC50/nM (high HSA)) [nM] | SMILES
1 | 0.2 | 115 |  |  | CC[C@H](C)[C@H](NC(=O)[C@H](Cc1ccccc1)NC(=O)[C@H](CCCCNC(=O)COCCOCCNC(=O)COCCOCCNC(=O)CC[C@H](NC(=O)CCCCCCCCCCCCC(=O)O)C(=O)O)NC(=O)[C@H](CCCNC(=N)N)NC(=O)[C@@H](NC(=O)[C@H](C)NC(=O)[C@H](CCC(N)=O)NC(=O)CNC(=O)[C@H](CCC(=O)O)NC(=O)[C@H](CC(C)C)NC(=O)[C@H](Cc1ccc(O)cc1)NC(=O)[C@H](CO)NC(=O)[C@H](CO)NC(=O)[C@@H](NC(=O)[C@H](CC(=O)O)NC(=O)[C@H](CO)NC(=O)[C@@H](NC(=O)[C@H](Cc1ccccc1)NC(=O)[C@@H](NC(=O)CNC(=O)[C@H](CCC(=O)O)NC(=O)[C@H](C)NC(=O)[C@@H](N)Cc1c[nH]cn1)[C@@H](C)O)[C@@H](C)O)C(C)C)C(C)C)C(=O)N[C@@H](C)C(=O)N[C@@H](Cc1c[nH]cn1)C(=O)N[C@@H](CC(C)C)C(=O)N[C@H](C(=O)N[C@@H](CCC(N)=O)C(=O)NCC(=O)N[C@@H](CCCNC(=N)N)C(=O)N[C@@H](CCCCNC(=O)COCCOCCNC(=O)COCCOCCNC(=O)CC[C@H](NC(=O)CCCCCCCCCCCCC(=O)O)C(=O)O)C(=O)O)C(C)C [Example 16, N^ε27-[2-[2-[2-[[2-[2-[2-[[(4S)-4-carboxy-4-(13-carboxytridecanoylamino)butanoyl]amino]ethoxy]ethoxy]acetyl]amino]ethoxy]ethoxy]acetyl], N^ε37-[2-[2-[2-[[2-[2-[2-[[(4S)-4-carboxy-4-(13-carboxytridecanoylamino)butanoyl]amino]ethoxy]ethoxy]acetyl]amino]ethoxy]ethoxy]acetyl]-[Val^25,Arg^26,Lys^27,His^31,Gln^34,Lys^37]-GLP-1-(7-37)-peptide] (H-HAEGTFTSDVSSYLEGQAVRK([AEEA-AEEA-γGlu-C14 diacid])FIAHLVQGRK([AEEA-AEEA-γGlu-C14 diacid])-OH; N-terminus and C-terminus assumed)
2 | 0.19 | 98 | 155 | 29 | CC[C@H](C)[C@H](NC(=O)[C@H](Cc1ccccc1)NC(=O)[C@H](CCCCNC(=O)COCCOCCNC(=O)COCCOCCNC(=O)CC[C@H](NC(=O)CCCCCCCCCCCCC(=O)O)C(=O)O)NC(=O)[C@H](CCCNC(=N)N)NC(=O)[C@@H](NC(=O)[C@H](C)NC(=O)[C@H](CCC(N)=O)NC(=O)CNC(=O)[C@H](CCC(=O)O)NC(=O)[C@H](CC(C)C)NC(=O)[C@H](Cc1ccc(O)cc1)NC(=O)[C@H](CO)NC(=O)[C@H](CO)NC(=O)[C@@H](NC(=O)[C@H](CC(=O)O)NC(=O)[C@H](CO)NC(=O)[C@@H](NC(=O)[C@H](Cc1ccccc1)NC(=O)[C@@H](NC(=O)CNC(=O)[C@H](CCC(=O)O)NC(=O)C(C)(C)NC(=O)[C@@H](N)Cc1c[nH]cn1)[C@@H](C)O)[C@@H](C)O)C(C)C)C(C)C)C(=O)N[C@@H](C)C(=O)N[C@@H](Cc1c[nH]cn1)C(=O)N[C@@H](CC(C)C)C(=O)N[C@H](C(=O)N[C@@H](CCC(N)=O)C(=O)NCC(=O)N[C@@H](CCCNC(=N)N)C(=O)N[C@@H](CCCCNC(=O)COCCOCCNC(=O)COCCOCCNC(=O)CC[C@H](NC(=O)CCCCCCCCCCCCC(=O)O)C(=O)O)C(=O)O)C(C)C [Example 15, N^ε27-[2-[2-[2-[[2-[2-[2-[[(4S)-4-carboxy-4-(13-carboxytridecanoylamino)butanoyl]amino]ethoxy]ethoxy]acetyl]amino]ethoxy]ethoxy]acetyl], N^ε37-[2-[2-[2-[[2-[2-[2-[[(4S)-4-carboxy-4-(13-carboxytridecanoylamino)butanoyl]amino]ethoxy]ethoxy]acetyl]amino]ethoxy]ethoxy]acetyl]-[Aib^8,Val^25,Arg^26,Lys^27,His^31,Gln^34,Lys^37]-GLP-1-(7-37)-peptide] (H-H[Aib]EGTFTSDVSSYLEGQAVRK([AEEA-AEEA-γGlu-C14 diacid])FIAHLVQGRK([AEEA-AEEA-γGlu-C14 diacid])-OH)
3 | 0.38 | 65 | 157 |  | CC[C@H](C)[C@H](NC(=O)[C@H](Cc1ccccc1)NC(=O)[C@H](CCCCNC(=O)COCCOCCNC(=O)COCCOCCNC(=O)CC[C@H](NC(=O)CCCCCCCCCCCCC(=O)O)C(=O)O)NC(=O)[C@H](CCCNC(=N)N)NC(=O)[C@@H](NC(=O)[C@H](C)NC(=O)[C@H](CCC(N)=O)NC(=O)[C@H](CCCCNC(=O)COCCOCCNC(=O)COCCOCCNC(=O)CC[C@H](NC(=O)CCCCCCCCCCCCC(=O)O)C(=O)O)NC(=O)[C@H](CCC(=O)O)NC(=O)[C@H](CC(C)C)NC(=O)[C@H](Cc1ccc(O)cc1)NC(=O)[C@H](CO)NC(=O)[C@H](CO)NC(=O)[C@@H](NC(=O)[C@H](CC(=O)O)NC(=O)[C@H](CO)NC(=O)[C@@H](NC(=O)[C@H](Cc1ccccc1)NC(=O)[C@@H](NC(=O)CNC(=O)[C@H](CCC(=O)O)NC(=O)C(C)(C)NC(=O)[C@@H](N)Cc1c[nH]cn1)[C@@H](C)O)[C@@H](C)O)C(C)C)C(C)C)C(=O)N[C@@H](C)C(=O)N[C@@H](Cc1c[nH]c2ccccc12)C(=O)N[C@@H](CC(C)C)C(=O)N[C@H](C(=O)N[C@@H](CCCNC(=N)N)C(=O)NCC(=O)O)C(C)C [Example 9, N^ε22-[2-[2-[2-[[2-[2-[2-[[(4S)-4-carboxy-4-(13-carboxytridecanoylamino)butanoyl]amino]ethoxy]ethoxy]acetyl]amino]ethoxy]ethoxy]acetyl],N^ε27-[2-[2-[2-[[2-[2-[2-[[(4S)-4-carboxy-4-(13-carboxytridecanoylamino)butanoyl]amino]ethoxy]ethoxy]acetyl]amino]ethoxy]ethoxy]acetyl]-Aib^8,Lys^22,Val^25,Arg^26,Lys^27,Arg^34l-GLP-1-(7-35)-peptide] (H-H[Aib]EGTFTSDVSSYLEK([AEEA-AEEA-γGlu-C14 diacid])QAVRK([AEEA-AEEA-γGlu-C14 diacid])FIAWLVRG-OH)

Row | SMILES | IC50 (human GLP-1 receptor; [2]) [nM] | Dose-corrected exposure at 30 min [1] | Ratio [(IC50/nM) high HSA]/[(IC50/nM) low HSA] (human GLP-1 receptor) | IC50 (human GLP-1 receptor; high albumin, 2.0% HSA, read-out: IC50/nM (high HSA)) [nM]
4 | CC[C@H](C)[C@H](NC(=O)[C@H](Cc1ccccc1)NC(=O)[C@H](CCCCNC(=O)COCCOCCNC(=O)COCCOCCNC(=O)CC[C@H](NC(=O)CCCCCCCCCOc1ccc(C(=O)O)cc1)C(=O)O)NC(=O)[C@H](CCCNC(=N)N)NC(=O)[C@H](C)NC(=O)[C@H](C)NC(=O)[C@H](CCC(N)=O)NC(=O)[C@H](CCC(=O)O)NC(=O)[C@H](CCC(=O)O)NC(=O)[C@H](CCCCNC(=O)COCCOCCNC(=O)COCCOCCNC(=O)CC[C@H](NC(=O)CCCCCCCCCOc1ccc(C(=O)O)cc1)C(=O)O)NC(=O)[C@H](Cc1ccc(O)cc1)NC(=O)[C@H](CO)NC(=O)[C@H](CO)NC(=O)[C@@H](NC(=O)[C@H](CC(=O)O)NC(=O)[C@H](CO)NC(=O)[C@@H](NC(=O)[C@H](Cc1ccccc1)NC(=O)[C@@H](NC(=O)CNC(=O)[C@H](CCC(=O)O)NC(=O)C(C)(C)NC(=O)[C@@H](N)Cc1c[nH]cn1)[C@@H](C)O)[C@@H](C)O)C(C)C)C(=O)N[C@@H](CCC(=O)O)C(=O)N[C@@H](Cc1c[nH]c2ccccc12)C(=O)N[C@@H](CC(C)C)C(=O)N[C@H](C(=O)NCC(=O)O)C(C)C [Example 5, N^ε20-[2-[2-[2-[[2-[2-[2-[[(4S)-4-carboxy-4-[10-(4-carboxyphenoxy)decanoylamino]butanoyl]amino]ethoxy]ethoxy]acetyl]amino]ethoxy]ethoxy]acetyl], N^ε27-[2-[2-[2-[[2-[2-[2-[[(4S)-4-carboxy-4-[10-(4-carboxyphenoxy)decanoylamino]butanoyl]amino]ethoxy]ethoxy]acetyl]amino]ethoxy]ethoxy]acetyl]-[Aib^8,Lys^20,Glu^22,Arg^26,Lys^27,Glu^30,Gly^34]-GLP-1-(7-34)-peptide] (H-H[Aib]EGTFTSDVSSYK([AEEA-AEEA-γGlu-Decanoyl(10-(4-HOOC-PhO))])EEQAARK([AEEA-AEEA-γGlu-Decanoyl(10-(4-HOOC-PhO))])FIEWLVG-OH) |  | 124 | 79 | 
